{
  "source": "paper PMC10952895",
  "about": "“Assessment of the potential of novel and classical opioids to induce respiratory depression in mice” (British Journal of Pharmacology, 2023)",
  "system": "T1, μ-receptor (μ-receptor-RLuc8)",
  "T1 construct": "gene Oprm1; construct from Gillis, Gondin et al. 2020",
  "test": "BRET, Nb33-Venus recruitment to μ-receptor-RLuc8 in HEK293 cells",
  "format": "cell-based",
  "settings": "agonist; 10 min after addition, normalised to DAMGO",
  "data": [
    {"smiles": "CN1c2ccccc2C(NCCCCCCC(=O)O)c2ccc(Cl)cc2S1(=O)=O", "note": "(stereo not drawn) [tianeptine]", "values": [
      {"measurement": "pEC50", "value": "5.8 ± 0.07"}
    ]},
    {"smiles": "COc1ccc2c3c1O[C@H]1C(=O)CC[C@@]4(O)[C@@H](C2)N(C)CC[C@]314", "note": "[oxycodone]", "values": [
      {"measurement": "pEC50", "value": "5.8 ± 0.05"}
    ]},
    {"smiles": "COc1ccsc1CNCC[C@@]1(c2ccccn2)CCOC2(CCCC2)C1", "note": "[oliceridine]", "values": [
      {"measurement": "pEC50", "value": "6.8 ± 0.1"}
    ]}
  ]
}
